For assay [1], the target named is Histamine H1 receptor (Homo sapiens, UniProt P35367). The assay is classed as functional, cell-based.
Assay [2] concerns the target T1, Progesterone receptor (Homo sapiens, UniProt P06401).
T1 sequence (P06401 whole entry): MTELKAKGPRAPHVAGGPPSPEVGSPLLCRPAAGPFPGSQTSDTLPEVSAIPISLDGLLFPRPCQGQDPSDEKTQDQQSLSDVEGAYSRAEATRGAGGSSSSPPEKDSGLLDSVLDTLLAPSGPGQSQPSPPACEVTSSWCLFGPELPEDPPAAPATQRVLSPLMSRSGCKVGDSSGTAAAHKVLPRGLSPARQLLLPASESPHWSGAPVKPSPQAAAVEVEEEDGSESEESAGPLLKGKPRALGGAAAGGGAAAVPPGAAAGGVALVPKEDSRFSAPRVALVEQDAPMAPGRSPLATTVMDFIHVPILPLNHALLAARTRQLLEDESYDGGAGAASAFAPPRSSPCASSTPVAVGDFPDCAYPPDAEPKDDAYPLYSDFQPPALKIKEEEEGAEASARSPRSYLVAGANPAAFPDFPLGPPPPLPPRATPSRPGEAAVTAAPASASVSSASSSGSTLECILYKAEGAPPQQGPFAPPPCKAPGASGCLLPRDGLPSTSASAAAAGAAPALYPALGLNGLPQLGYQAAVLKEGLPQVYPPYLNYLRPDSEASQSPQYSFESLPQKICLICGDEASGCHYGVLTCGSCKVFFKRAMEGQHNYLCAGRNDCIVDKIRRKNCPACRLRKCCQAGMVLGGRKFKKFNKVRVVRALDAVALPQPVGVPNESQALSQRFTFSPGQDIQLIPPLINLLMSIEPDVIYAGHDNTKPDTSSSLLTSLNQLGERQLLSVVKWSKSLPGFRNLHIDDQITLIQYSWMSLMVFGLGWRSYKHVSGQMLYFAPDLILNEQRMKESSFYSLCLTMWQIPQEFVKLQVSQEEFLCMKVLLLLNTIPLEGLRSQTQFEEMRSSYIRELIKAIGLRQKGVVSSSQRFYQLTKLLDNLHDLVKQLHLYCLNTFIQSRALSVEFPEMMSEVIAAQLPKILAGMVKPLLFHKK

For assay [3], the target named is Histamine H2 receptor (Homo sapiens, UniProt P25021).
Chain of Histamine H2 receptor (P25021 whole entry): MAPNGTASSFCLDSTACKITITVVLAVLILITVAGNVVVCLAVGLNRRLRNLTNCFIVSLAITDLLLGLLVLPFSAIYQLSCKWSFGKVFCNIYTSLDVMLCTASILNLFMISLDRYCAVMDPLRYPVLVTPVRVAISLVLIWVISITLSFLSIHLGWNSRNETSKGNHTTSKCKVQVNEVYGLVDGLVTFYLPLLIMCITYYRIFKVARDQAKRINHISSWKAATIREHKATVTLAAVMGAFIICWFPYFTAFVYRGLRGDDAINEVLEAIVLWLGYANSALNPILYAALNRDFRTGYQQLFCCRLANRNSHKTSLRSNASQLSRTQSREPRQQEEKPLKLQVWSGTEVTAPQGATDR
Assay [4] has as its target D(1A) dopamine receptor (Homo sapiens, UniProt P21728).
Assay [5] deals with T2, Corticotropin-releasing factor receptor 1 (Homo sapiens, UniProt P34998).
T2 sequence (P34998 whole entry): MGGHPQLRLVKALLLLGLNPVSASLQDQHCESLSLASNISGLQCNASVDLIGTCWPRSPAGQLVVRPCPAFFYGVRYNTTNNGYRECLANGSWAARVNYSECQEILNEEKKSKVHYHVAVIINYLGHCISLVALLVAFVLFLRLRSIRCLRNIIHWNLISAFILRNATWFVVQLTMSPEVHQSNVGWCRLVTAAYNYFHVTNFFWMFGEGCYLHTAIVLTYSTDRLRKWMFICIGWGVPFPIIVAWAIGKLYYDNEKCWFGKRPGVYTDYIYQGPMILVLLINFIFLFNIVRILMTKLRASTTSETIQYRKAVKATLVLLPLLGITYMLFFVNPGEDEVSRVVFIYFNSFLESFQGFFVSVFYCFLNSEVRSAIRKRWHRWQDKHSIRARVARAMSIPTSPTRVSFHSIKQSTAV

For assay [6], the target named is Neurotensin receptor type 1 (Homo sapiens, UniProt P30989).
Chain of Neurotensin receptor type 1 (P30989 whole entry): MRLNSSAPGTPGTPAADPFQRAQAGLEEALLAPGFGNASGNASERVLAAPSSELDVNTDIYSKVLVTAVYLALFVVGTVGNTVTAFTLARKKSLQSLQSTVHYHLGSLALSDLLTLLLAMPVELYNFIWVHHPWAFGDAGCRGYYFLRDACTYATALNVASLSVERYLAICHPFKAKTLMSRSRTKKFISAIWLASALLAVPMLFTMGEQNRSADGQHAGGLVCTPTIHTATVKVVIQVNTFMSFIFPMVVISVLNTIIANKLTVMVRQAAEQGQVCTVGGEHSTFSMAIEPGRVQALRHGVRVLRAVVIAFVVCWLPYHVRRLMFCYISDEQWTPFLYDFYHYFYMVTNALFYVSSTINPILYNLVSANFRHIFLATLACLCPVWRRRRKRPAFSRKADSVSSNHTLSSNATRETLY
In assay [7] the target is T3, Endothelin receptor type B (Homo sapiens, UniProt P24530).
T3 sequence (P24530 whole entry): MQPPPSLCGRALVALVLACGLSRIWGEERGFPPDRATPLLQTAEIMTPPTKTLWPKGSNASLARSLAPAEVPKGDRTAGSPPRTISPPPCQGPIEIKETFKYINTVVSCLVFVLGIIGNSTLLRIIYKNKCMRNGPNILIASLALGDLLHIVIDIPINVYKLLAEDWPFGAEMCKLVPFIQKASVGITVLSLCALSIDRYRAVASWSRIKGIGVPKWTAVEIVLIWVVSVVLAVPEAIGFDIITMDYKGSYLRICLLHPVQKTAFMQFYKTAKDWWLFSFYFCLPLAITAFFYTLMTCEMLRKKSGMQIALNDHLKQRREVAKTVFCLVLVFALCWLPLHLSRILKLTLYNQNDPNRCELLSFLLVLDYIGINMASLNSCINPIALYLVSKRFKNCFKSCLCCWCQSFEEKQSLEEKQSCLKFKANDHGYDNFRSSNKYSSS

The target in assay [8] is T4, Androgen receptor (Rattus norvegicus, UniProt P15207).
T4 sequence (P15207 whole entry): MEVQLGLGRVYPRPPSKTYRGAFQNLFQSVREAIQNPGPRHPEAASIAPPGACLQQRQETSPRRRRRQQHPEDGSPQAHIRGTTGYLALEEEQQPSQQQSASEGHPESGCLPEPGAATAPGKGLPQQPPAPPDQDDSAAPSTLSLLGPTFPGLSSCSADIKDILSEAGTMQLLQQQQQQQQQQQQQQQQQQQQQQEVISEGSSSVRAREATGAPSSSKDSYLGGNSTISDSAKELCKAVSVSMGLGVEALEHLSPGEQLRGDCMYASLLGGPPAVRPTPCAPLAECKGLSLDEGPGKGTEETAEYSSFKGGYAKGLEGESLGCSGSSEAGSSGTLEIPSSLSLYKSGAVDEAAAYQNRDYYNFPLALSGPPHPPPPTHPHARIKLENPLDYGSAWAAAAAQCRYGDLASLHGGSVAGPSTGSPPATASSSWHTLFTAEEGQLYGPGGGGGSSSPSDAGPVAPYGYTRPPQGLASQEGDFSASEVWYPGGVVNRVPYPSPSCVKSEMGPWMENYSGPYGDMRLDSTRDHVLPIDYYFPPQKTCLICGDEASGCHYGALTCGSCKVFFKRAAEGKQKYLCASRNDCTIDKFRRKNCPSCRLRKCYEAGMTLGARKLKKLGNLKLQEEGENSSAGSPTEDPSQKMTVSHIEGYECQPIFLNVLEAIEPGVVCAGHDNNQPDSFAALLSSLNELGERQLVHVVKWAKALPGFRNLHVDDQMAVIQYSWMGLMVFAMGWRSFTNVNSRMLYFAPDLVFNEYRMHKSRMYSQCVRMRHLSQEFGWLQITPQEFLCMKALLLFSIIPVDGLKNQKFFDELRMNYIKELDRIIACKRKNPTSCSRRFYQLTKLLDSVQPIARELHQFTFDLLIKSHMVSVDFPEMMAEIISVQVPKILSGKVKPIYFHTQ
The class given is functional.
Note: assay procedure not described here.

Chain of Histamine H1 receptor (P35367 whole entry): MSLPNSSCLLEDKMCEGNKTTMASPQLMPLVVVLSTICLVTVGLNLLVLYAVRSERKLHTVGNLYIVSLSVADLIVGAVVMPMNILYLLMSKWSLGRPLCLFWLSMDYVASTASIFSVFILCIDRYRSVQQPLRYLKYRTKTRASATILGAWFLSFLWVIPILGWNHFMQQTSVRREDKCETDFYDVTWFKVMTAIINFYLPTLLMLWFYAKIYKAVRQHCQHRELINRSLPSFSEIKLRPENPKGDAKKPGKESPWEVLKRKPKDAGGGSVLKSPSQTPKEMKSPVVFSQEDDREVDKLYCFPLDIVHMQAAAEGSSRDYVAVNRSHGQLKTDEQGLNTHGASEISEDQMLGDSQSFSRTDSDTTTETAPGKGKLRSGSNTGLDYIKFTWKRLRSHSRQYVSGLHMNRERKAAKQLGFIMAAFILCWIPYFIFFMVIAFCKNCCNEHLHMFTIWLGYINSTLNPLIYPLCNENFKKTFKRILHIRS
Chain of D(1A) dopamine receptor (P21728 whole entry): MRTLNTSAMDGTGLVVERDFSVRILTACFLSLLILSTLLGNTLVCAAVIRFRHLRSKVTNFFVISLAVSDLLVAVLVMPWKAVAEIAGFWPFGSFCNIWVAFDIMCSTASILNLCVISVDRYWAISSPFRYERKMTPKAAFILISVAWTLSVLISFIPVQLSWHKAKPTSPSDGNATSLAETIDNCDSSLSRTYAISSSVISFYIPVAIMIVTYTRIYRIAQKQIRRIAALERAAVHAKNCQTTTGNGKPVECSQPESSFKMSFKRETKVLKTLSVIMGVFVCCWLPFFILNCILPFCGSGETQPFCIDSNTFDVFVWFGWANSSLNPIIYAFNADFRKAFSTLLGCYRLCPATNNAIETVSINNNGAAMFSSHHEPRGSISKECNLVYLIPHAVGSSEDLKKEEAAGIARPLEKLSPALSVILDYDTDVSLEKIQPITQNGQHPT

Usually AC50 stands for the midpoint of the concentration-response curve, whichever way the signal moves. Molecule `CC(=O)N[C@@H](CS)C(=O)O` [ACETYLCYSTEINE] registered an AC50 in assay [1] of more than 30 µM.

Take `CN1CCC(=C2c3ccccc3CCc3cccnc32)CC1` [AZATADINE]: the half-maximal activity concentration (AC50) in assay [2] was more than 30 µM; in assay [1], 0.0665 µM.

As for `CC(CCc1ccc(O)cc1)NCCc1ccc(O)c(O)c1` (stereo not given) [DOBUTAMINE], the concentration at half-maximal activity (AC50) in assay [3] is more than 10 µM; in assay [4], more than 10 µM; in assay [5], more than 30 µM; in assay [6], more than 30 µM; in assay [2] it was more than 30 µM; in assay [7] it was more than 30 µM.

Regarding `C[C@]12CC[C@@H]3c4ccc(O)cc4C[C@@H](CCCCCCCCC[S+]([O-])CCCC(F)(F)C(F)(F)F)[C@H]3[C@@H]1CC[C@@H]2O` (stereo not given in full) [FULVESTRANT], the AC50 in assay [8] and in assay [1] was more than 30 µM throughout.

Consider `CC(C)NCC(O)c1ccc(O)c(O)c1` (stereo not given) [ISOPROTERENOL], for which the AC50 in assay [3] was more than 10 µM; in assay [4], more than 10 µM; in assay [5], more than 30 µM; in assay [6], more than 30 µM; in assay [2] it was more than 30 µM; in assay [7], more than 30 µM.

On to `C[C@H](Cc1ccc(O)c(O)c1)[C@@H](C)Cc1ccc(O)c(O)c1` [MASOPROCOL], for which, in assay [1], the AC50 is 23 µM.

As for `OC1(c2ccc(Cl)cc2)c2ccccc2C2=NCCN21` (stereo not given) [MAZINDOL], the half-maximal activity concentration (AC50) in assay [8] is more than 30 µM; in assay [3], more than 10 µM; in assay [4], more than 10 µM; in assay [5] it was more than 30 µM; in assay [6], more than 30 µM; in assay [2], more than 30 µM. For the same molecule, in assay [7], the AC50 came out at 33.1 µM.

With `CC12CC3CC(C)(C1)CC(N)(C3)C2` [MEMANTINE], the AC50 in assay [5], in assay [6], in assay [2], in assay [1] and in assay [7] was more than 30 µM in each case.

As for `CCOC(=O)C1=C(C)NC(C)=C(C(=O)OC)C1c1cccc([N+](=O)[O-])c1` (stereo not given) [NITRENDIPINE], the concentration at half-maximal activity (AC50) was more than 10 µM in assay [3]; more than 10 µM in assay [4]; more than 30 µM in assay [5]; more than 30 µM in assay [6]; more than 30 µM in assay [2]; more than 30 µM in assay [7].

`[H]/N=C(/N)N/C(=N/[H])NCCc1ccccc1` [PHENFORMIN]: the AC50 in assay [3] was more than 10 µM; in assay [4], more than 10 µM; in assay [5] it was more than 30 µM; in assay [6], more than 30 µM; in assay [2], more than 30 µM; in assay [7], more than 30 µM.

In the case of `CC(N)C(O)c1ccccc1` (stereo not given) [PHENYLPROPANOLAMINE], the concentration at half-maximal activity (AC50) in assay [3] is more than 10 µM; in assay [4], more than 10 µM; in assay [5] it was more than 30 µM; in assay [6], more than 30 µM; in assay [2], more than 30 µM; in assay [7] it was more than 30 µM.

`CCC(C)C(CC)C(N)=O` (stereo not given) [VALNOCTAMIDE]: the AC50 in assay [8] and in assay [1] was more than 30 µM throughout.

For the origin of these results see ChEMBL document CHEMBL5291721, “A preclinical secondary pharmacology resource illuminates target-adverse drug reaction associations of marketed drugs” (Nat Commun, 2023).
